Compound `CC(C)(C)[Si](OCC#Cc1ccc2ncc3c(c2c1)C(O)CCC3)(c1ccccc1)c1ccccc1` (centres undefined) showed a melting point of 132 to 133 °C. With `CSCc1ccc(NC(=O)/C=C/c2cnn(C)c2-c2ccc(F)cc2)cc1`, the melting point fell in the range of 165 to 168 °C. The compound `CN(C)C(=O)c1ccccc1N` returned a melting point of 53 to 54 °C.

`CCOC(=O)/C=C/c1cc(-n2cnnc2)cc(C(F)(F)F)c1N`: the melting point was 225 to 227 °C. With `COc1cccc(-c2nc(-c3ccccc3)c3ncc(-c4cccnc4)cc3n2)c1` the figure was 134 to 135 °C; with `C=CCC(c1c(Cl)c(Cl)cc2[nH]c(=O)c(=O)[nH]c12)S(C)(=O)=O` (centres undefined), 270 to 272 °C; with `Cn1c(Cn2nc(CC(=O)O)c3ccccc3c2=O)nc2ccccc21`, 230 °C. Regarding `CCC(Oc1ccc(C)cc1C)C(=O)OC1CC(O)C=C2C=CC(C)C(CCC3CC(O)CC(=O)O3)C21` (mixture of isomers), the melting point was in the range of 159 to 160 °C. Compound `O=[N+]([O-])c1ccc(S(=O)(=O)c2ccc(Cl)cc2)nc1` displayed a melting point of 177 to 180 °C. In the case of `CC(=O)N(C)C1(c2ccccc2)CCN(Cc2ccccc2)CC1` it was 104 °C; in that of `Cn1ncnc1COc1nn2c(-c3cnccn3)nnc2cc1-c1ccccc1`, 264 °C. With `O=C(COCc1ccccc1)NC(C(=O)O)c1ccccc1` (centres undefined) the figure was 127 to 130 °C; with `CCCCc1nc2c(C)nc(C)cc2n1-c1ccc(CCOC(=O)NS(=O)(=O)c2ccc(C)cc2)cc1`, 162 °C. With `COC1(c2ccc(OC(C)=O)cc2)Sc2ccccc2N(C)C1=O` (centres undefined) the figure was 144 to 146 °C; with `C1=C(CCC2CCCO2)CCN(Cc2c[nH]c3ncccc23)C1` (centres undefined), 70 to 72 °C. Consider `COc1ccc(C(=O)Cc2cc(OC)ccc2OC)c(Br)c1`, for which the melting point lay in the range of 76 to 79 °C.

`CSc1cc(OCCC[Si](C)(C)C)c(Cl)cc1NC=NC#N` had a melting point of 94 to 96 °C.

Regarding `O=C1N(Cc2cnc(N3CCOCC3)s2)c2ccccc2C12COc1cc3c(cc12)OCO3` (centres undefined), the melting point lay in the range of 97 to 99 °C.

Compound `O=c1c2ccccc2[nH]c(=S)n1CCCO` came in with a melting point of 174 to 176 °C. For `O=C(O)c1cc(Oc2ncc(C(F)(F)F)cc2Cl)ccc1[N+](=O)[O-]`, the melting point is 131 °C. With `O=C(O)c1ccc(-c2ncc(-c3ccc(F)cc3F)o2)cc1` the figure was 301 to 302 °C; with `O=C(O)Cc1ccc2c(c1)C(c1ccccc1)C(=O)O2` (centres undefined), 136 °C.

Regarding `CCOC(C)OCC(O)CN1C(CO)=Cc2ccsc2S1(=O)=O` (centres undefined), the melting point was in the range of 95 to 97 °C. With `C=Cc1cn(-c2c(Cl)cc(C(F)(F)F)cc2Cl)c2ccccc12` the figure was 85 to 87 °C. With `CCCCOc1ccc2c(c1)CCC(C(=O)OC)C2O` (centres undefined) the figure was 81 to 83 °C; with `O=C(CNC(=O)c1ccc(Cl)c(Cl)c1)c1ccoc1`, 133 to 134 °C. For `COc1ccc(-c2nc(-c3ccc4c(c3)CCCN4C(C)=O)cs2)cc1OC`, the melting point was 148 °C. With `CC1=NC(NC(=O)Nc2cccc(C)c2)C(=O)N(CC(=O)C23CC4CC(CC(C4)C2)C3)c2c(C)cccc21` (centres undefined) the figure was 182 to 184 °C; with `OC(c1ccccc1F)c1cc(C(F)(F)F)nc2c(C(F)(F)F)cccc12` (centres undefined), 120 to 121 °C; with `Cc1nc[nH]c1CSCCCNC(=N)N`, 156 to 158 °C. With `COc1ccc(-c2ccnnc2)cc1OC1CCCC1` the figure was 100 to 102 °C; with `CCSc1[nH]c2cccc3c2c1CC1C3C=C(C)CN1C` (centres undefined), 168 to 169 °C; with `COc1cc2c(cc1OC)CCCC(C(=O)N1CCN(C(=S)c3cc(OC)c(OC)c(OC)c3)CC1)=C2`, 172 to 173 °C. In the case of `O=C(CCCN1CCCC(c2cccc(O)c2)C1)c1ccc(F)cc1` (centres undefined) it was 77 to 78 °C. In turn, `CCSc1ccc(/C=C(\NC(=O)c2ccc(OCC(C)C)cc2)C(=O)NCCO)cc1` came in with a melting point of 153 to 155 °C. With `COc1ccc(S(=O)(=O)N2CC(C)(C)CN(S(=O)(=O)c3ccc(OC)cc3)C2C(=O)NO)cc1` the figure was 125 to 126 °C.

`Cc1cc(C)c2c(c1)SCCC2=NO` showed a melting point of 170 to 174 °C. In the case of `Cc1ccc(-n2nc3c(cc2=O)CCc2cnccc2-3)cc1` it was 188 to 189 °C; in that of `C=CCn1c(=O)[nH]c(=O)n(-c2ccccc2)c1=O`, 63 to 65 °C.

`CC(=O)N(C)c1nc(C)co1` showed a melting point of 27 to 29 °C. Consider `C#CCN1C(=O)COc2cc(F)c(NC(=O)C3CCCN3C(=O)OCc3ccccc3)cc21` (centres undefined), for which the melting point is 72 to 74 °C. In the case of `COc1cn(-c2ccc(OS(=O)(=O)C(F)(F)F)cc2F)nc(-c2ccnn2-c2ccccc2)c1=O` it was 108 to 110 °C; in that of `CC1(C)CC2(CC(C)(C)N1O)NC(=O)N(CC1CO1)C2=O` (centres undefined), 154 °C; in that of `Cc1cc(C)c2c(c1)SCC2c1ccc(C(C)C)cc1` (centres undefined), 74 to 75 °C.

Regarding `O=C(N[C@@H](Cc1ccccc1)C(=O)O)c1cnccn1`, the melting point lay in the range of 166 to 169 °C. With `CC(C)C(CCCCCCCC(=O)O)NCc1ccc(F)cc1` (centres undefined) the figure was 78 to 82 °C; with `COc1ccc(CC(Br)C(N)=O)cc1C(=O)NCc1ccc(C(F)(F)F)cc1` (centres undefined), 192 to 193 °C. Take `O=C(O)C1=Cc2cc(-c3ccc(C(F)(F)F)cc3)ccc2OCC1`: the melting point is 273 to 276 °C.

`CNC(=O)NCCNCC(O)COc1ccc(OCCOCC(C)C)cc1` (centres undefined) returned a melting point of 121 °C. In the case of `O=C(O)CNC(=O)CCc1cccc(-c2nc(=O)c3ccccc3s2)n1` it was 219 to 220 °C; in that of `CC(C)(C)OC(=O)N1CCN(c2ccc(S(=O)(=O)c3ccccc3)c(N)c2)CC1`, 135 to 137 °C.

The compound `O=C1NCCNC1Cc1ccccc1` (centres undefined) returned a melting point of 92 to 93 °C. With `CC1CCCCN1CCC(CCN(C(C)C)C(C)C)(C(N)=O)c1ccccc1F` (centres undefined) the figure was 90 to 91 °C; with `CC(C)CC(=O)Nc1nc(-c2ccccc2)c(-c2ccc(=O)n(C(C)C)n2)s1`, 198 to 199 °C.

Take `c1cc(CN2CCc3cccc(CCc4nnn[nH]4)c32)cc(OCc2ccc3ccccc3n2)c1`: the melting point was in the range of 148 to 151 °C. In the case of `C#CCOc1cc(-n2c(=O)cc(C(F)(F)F)[nH]c2=O)ccc1C` it was 202 to 204 °C. In the case of `O=[N+]([O-])c1cc(Cl)cc(CCc2ccccn2)c1O` it was 97 to 100 °C; in that of `Cc1ccc(S(=O)(=O)Nc2cnc(C3OCCO3)cc2C)cc1`, 155 to 156 °C. With `CCC(CC)c1ccc(Cl)c2nc3n(c12)CCCN3c1cnc(N(C)C)cc1C` the figure was 228 to 230 °C.

The compound `COc1ccc(C(=O)Nc2c(Cl)cc(C=O)cc2Cl)cc1OC1CCCC1` registered a melting point of 96 to 98 °C. The compound `COc1ccc(C2CCNCC2)cc1OC` gave a melting point of 98 to 100 °C. With `CCc1cccc(C)c1CNc1nc(OCCOC)cc(NC)c1[N+](=O)[O-]` the figure was 135 to 136 °C; with `COC(=O)CCC(=O)c1ccc2c(c1)CC(CNC(C)=O)C2` (centres undefined), 139 to 140 °C; with `CCCC(C(=O)OCC)c1ccc(N2Cc3ccccc3C2=N)cc1` (centres undefined), 158 to 160 °C. With `CCCCCCCCCCCCCCC1COC2(CC(c3ccccc3)N(O)C(c3ccccc3)C2)O1` (centres undefined) the figure was 98 to 100 °C. Compound `CCOC(=O)[C@H]1CC(OS(=O)(=O)c2ccc(C)cc2)CN1S(=O)(=O)c1ccc(C)cc1` (some centres undefined) had a melting point of 93 °C. With `CC(Oc1ccccc1)C(=O)NCCCCn1cnc2c(N)nc3ccccc3c21` (centres undefined) the figure was 85 to 87.5 °C; with `CCN1C(=O)c2cccnc2N(CC)c2ccccc21`, 108 to 110 °C; with `CCCCCCCCCCCCCCC(=O)c1ccc2cc(O)c(O)cc2c1`, 133 to 134 °C. For `CC(O)c1nccc2ccccc12` (centres undefined), the melting point fell in the range of 60 to 62 °C. The compound `O=C(O)CCCc1cc2nc(Cl)ccc2n1S(=O)(=O)c1cc(Cl)ccc1Cl` yielded a melting point of 86 to 89 °C. With `O=C(Nc1cccc(Cl)c1)C1=Cc2ccccc2S1=O` (centres undefined) the figure was 257 to 258 °C. With `Cc1cc(N2CCN(CC(=O)c3ccccc3)C2=O)sc1C(=O)NCc1cccnc1` the figure was 174 to 176 °C.

As for `O=C(Cn1c(-c2ccccc2)ccc(NC(=O)OCc2ccc(C(=O)O)cc2)c1=O)NC(Cc1ccccc1)C(=O)C(F)(F)F` (centres undefined), the melting point was in the range of 214 to 216 °C. With `CSc1c(OCC(=O)O)ccc2c1[nH]c1ccccc12` the figure was 179 to 180 °C; with `CC(C)n1nc(OCc2ccc3ccccc3n2)cc1CO`, 137 to 138 °C. In the case of `CC(C)[C@H](NC(=O)OCc1ccccc1)C(=O)NC(Cc1ccccc1)C(O)C(Cc1ccccc1)NC(=O)[C@@H](NC(=O)c1cccnc1)C(C)C` (some centres undefined) it was 196 to 199 °C. `O=C1c2ccccc2C(O)N1c1ccc2ncccc2n1` (centres undefined): the melting point was found to be 208 °C. In the case of `CC12CCC(C(=Cc3ccc(O)cc3)C1=O)C2(C)C` (centres undefined) it was 220 °C; in that of `OCc1cc(N2CCOCC2)c(F)cn1`, 134 to 136 °C.

As for `N=C(NO)c1cnn2c(C(F)(F)F)cc(-c3ccc(C(F)(F)F)cc3)nc12`, the melting point turned out to be 252 °C. In the case of `O=C(O)c1cn(CC2CCCCC2)c2cc(Cl)ccc12` it was 170 to 172 °C. In the case of `Cc1nc(-n2ccc(O)cc2=O)sc1C(=O)NCc1cccnc1` it was 238 to 240 °C; in that of `COc1ccc(-c2ccc(C3C(CCC(O)c4ccc(F)cc4)C(=O)N3c3ccc(F)cc3)cc2)cc1` (centres undefined), 103 °C. With `N#Cc1cnc2scc(Br)c2c1Br` the figure was 204 to 206 °C. Consider `COc1cc(OC)c2c(=O)c(OCCOc3ccc(C(C)=C4SC(=O)NC4=O)cc3)c(-c3ccc(OC)c(OC)c3)oc2c1`, for which the melting point was in the range of 205 to 206 °C. In the case of `CCC(=O)Nc1ccc(-c2c[nH]c(=O)cn2)cc1` it was 270 to 272 °C; in that of `CN1CCN(c2c(CO)cnc3c(NC(=O)c4c(Cl)cccc4Cl)cccc23)C1=S`, 253 to 254 °C; in that of `Fc1ccc(COc2cccnc2NC(=S)Nc2ccc(Cl)cc2)c(F)c1`, 154 to 156 °C.

A word on the melting point: it is the temperature, or range, at which the solid turns liquid.

The values are drawn from a melting point compilation (Tetko et al.; mined from patent text by program, amines drawn as free bases though some values may be those of a salt).
